A value given as a limit tells only on which side of the number the result lay.

In the assay the target is T1, β-secretase (BACE) (Homo sapiens, UniProt P56817).
T1 construct: purchased Panvera
Nature of the assay: BACE FS1 % Inhibition Assay. It counts as biochemical. As to the method:
The following reagents were used in this assay: sodium acetate, PEG8000 (Sigma), DMSO, HEPES, FS1 substrate [[…]] […] The FS1-substrate stock solution was prepared in DMSO as a 10 mg/mL solution. The FS1-substrate working solution was prepared by diluting the 10 mg/mL stock solution with substrate assay buffer to a final concentration of 300 μg/mL. The β-secretase (BACE) working solution was prepared by diluting a 0.83 mg/mL BACE stock solution with enzyme assay buffer to a final concentration of 4 μg/mL. Test compounds were dissolved in DMSO to 10 mM. […] The screening procedure for this assay was as follows: 15 μL of BACE working solution was pipetted into each well of a 96-well plate. To each well was then pipetted 2 μL of test compound at the selected concentration. Test compound and BACE were then mixed with a pipettor and incubated for 20 min at room temperature. To each well was then added 10 μL of the FS1 substrate working solution. The plates were then incubated for 1 hour at room temperature. […] The procedure for the blank was as follows. 15 μL of assay buffer was pipetted into each well to be used as a blank control. To each well was then added 2 μL of vehicle and 10 μL of FS1-substrate working solution. The plates were then incubated for 1 hour at room temperature. […] The procedure for the positive control was as follows: 15 μL of BACE working solution was pipetted into each well to be used as a positive control. To each well was then pipetted 2 μL of vehicle. Vehicle and BACE were then mixed with a pipettor and incubated for 20 min at room temperature. To each well was then added 10 μL of the FS1 substrate working solution. The plates were then incubated for 1 hour at room temperature. […] For test compounds, % inhibition was determined at each concentration as follows: [formula]

T1 sequence (P56817 46-501): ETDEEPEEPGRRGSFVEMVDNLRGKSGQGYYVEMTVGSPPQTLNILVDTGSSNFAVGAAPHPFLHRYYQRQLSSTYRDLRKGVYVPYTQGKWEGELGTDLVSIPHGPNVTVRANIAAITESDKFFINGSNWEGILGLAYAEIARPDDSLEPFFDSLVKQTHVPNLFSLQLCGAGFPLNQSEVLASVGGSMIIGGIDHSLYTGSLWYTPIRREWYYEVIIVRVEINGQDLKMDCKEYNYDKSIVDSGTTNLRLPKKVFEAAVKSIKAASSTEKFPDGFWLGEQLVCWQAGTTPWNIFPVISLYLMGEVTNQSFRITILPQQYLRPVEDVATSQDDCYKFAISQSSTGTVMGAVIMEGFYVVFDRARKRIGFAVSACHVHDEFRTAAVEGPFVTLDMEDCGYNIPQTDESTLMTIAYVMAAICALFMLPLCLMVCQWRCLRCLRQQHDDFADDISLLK

In the case of `CC(C)CC(=O)NCCN1Cc2cc(Oc3ccccc3)ccc2N=C1N` [Compound 190], the “% Inhibition (FS)” value is 51% (0.3 μM test compound), 86% (1 μM test compound) and 101% (3 μM test compound).
As to `CC1CCC(C(=O)NCCN2Cc3cc(Oc4ccccc4)ccc3N=C2N)CC1` (stereo not drawn) [Compound 191], the “% Inhibition (FS)” value runs as follows: (0.3 μM test compound) <30%; (1 μM test compound) 46%; (3 μM test compound) 88%.
Consider `NC1=Nc2ccc(Oc3ccccc3)cc2CN1Cc1cccc(C(=O)N2CCC3CCCCC3C2)c1` (stereo not drawn) [Compound 193], for which the “% Inhibition (FS)” value is, setting by setting: (0.3 μM test compound) <30%; (1 μM test compound) 34%; (3 μM test compound) 67%.
The corresponding values for `CCCCCC1CC2(C(=O)NCCN3Cc4cc(Oc5ccccc5)ccc4N=C3N)CCC1CC2` (stereo not drawn) [Compound 194] are <30%, 42% and 38%.
The corresponding values for `NC1=Nc2ccc(Oc3ccccc3)cc2CN1CCNC(=O)c1ccc(-c2ccccc2)cc1` [Compound 195] are <30%, <30% and <30%.
With `CCCN(CC1CC1)C(=O)c1cccc(CN2Cc3cc(Oc4ccccc4)ccc3N=C2N)c1` [Compound 197], the “% Inhibition (FS)” value is, setting by setting: (0.3 μM test compound) <30%; (1 μM test compound) <30%; (3 μM test compound) 32%.
`CCCCC(CC)CN(CC(CC)CCCC)C(=O)c1cccc(CN2Cc3cc(Oc4ccccc4)ccc3N=C2N)c1` (stereo not drawn) [Compound 198]: the “% Inhibition (FS)” value is given as <30% (0.3 μM test compound), <30% (1 μM test compound) and <30% (3 μM test compound).
As for `CN(C(=O)CC(C1CCCCC1)N1Cc2cc(Oc3ccccc3)ccc2N=C1N)C1CCCCC1` (stereo not drawn) [Compound 199], the “% Inhibition (FS)” value (0.3 μM test compound) was <30%, the “% Inhibition (FS)” value (1 μM test compound) is <30% and the “% Inhibition (FS)” value (3 μM test compound) turned out to be 82%.
As for `CC(C)N(C(=O)CC(C1CCCCC1)N1Cc2cc(Oc3ccccc3)ccc2N=C1N)C1CCCCC1` (stereo not drawn) [Compound 200], the “% Inhibition (FS)” value is <30% (0.3 μM test compound), <30% (1 μM test compound) and <30% (3 μM test compound).
`CC(C)C(CC(=O)N(C)C1CCCCC1)N1Cc2cc(Oc3ccccc3)ccc2N=C1N` (stereo not drawn) [Compound 201]: the “% Inhibition (FS)” value (0.3 μM test compound) is <30%, the “% Inhibition (FS)” value (1 μM test compound) was <30% and the “% Inhibition (FS)” value (3 μM test compound) was found to be 66%.
Turning to `CC(C)C(CC(=O)N(C(C)C)C1CCCCC1)N1Cc2cc(Oc3ccccc3)ccc2N=C1N` (stereo not drawn) [Compound 202], the “% Inhibition (FS)” value (0.3 μM test compound) is <30%, the “% Inhibition (FS)” value (1 μM test compound) was <30% and the “% Inhibition (FS)” value (3 μM test compound) is <30%.
`NC1=Nc2ccc(Oc3ccccc3)cc2CN1CCNC(=O)C(c1ccccc1)c1ccccc1` [Compound 207]: the “% Inhibition (FS)” value is reported as 48% (0.3 μM test compound), 90% (1 μM test compound) and 108% (3 μM test compound).
Take `CCCCCCCCC(CCC(=O)NC1CCCCCC1)N1Cc2cc(Oc3ccccc3)ccc2N=C1N` (stereo not drawn) [Compound 208]: the “% Inhibition (FS)” value (0.3 μM test compound) is <30%, the “% Inhibition (FS)” value (1 μM test compound) is <30% and the “% Inhibition (FS)” value (3 μM test compound) was 67%.
For the molecule `CCCCCCCCC(CCC(=O)N(C)C1CCCCC1)N1Cc2cc(Oc3ccccc3)ccc2N=C1N` (stereo not drawn) [Compound 210], the “% Inhibition (FS)” value by setting is: (0.3 μM test compound) <30%; (1 μM test compound) <30%; (3 μM test compound) <30%.
Take `NC1=Nc2ccc(Oc3ccccc3)cc2CN1Cc1cccc(C(=O)N2CCCC3CCCCC32)c1` (stereo not drawn) [Compound 212]: the “% Inhibition (FS)” value is given as <30% (0.3 μM test compound), <30% (1 μM test compound) and 32% (3 μM test compound).
As to `CC1CCC(NC(=O)c2cccc(CN3Cc4cc(Oc5ccccc5)ccc4N=C3N)c2)CC1` (stereo not drawn) [Compound 213], the “% Inhibition (FS)” value reads like this: (0.3 μM test compound) <30%; (1 μM test compound) <30%; (3 μM test compound) <30%.
`COc1cccc(C(=O)NCCN2Cc3cc(Oc4ccccc4)ccc3N=C2N)c1` [Compound 217]: the “% Inhibition (FS)” value was <30% (0.3 μM test compound), <30% (1 μM test compound) and 56% (3 μM test compound).
Regarding `CN1CCCC1CCNC(=O)c1cccc(CN2Cc3cc(Oc4ccccc4)ccc3N=C2N)c1` (stereo not drawn) [Compound 222], the “% Inhibition (FS)” value is recorded as <30% (0.3 μM test compound), <30% (1 μM test compound) and <30% (3 μM test compound).
Consider `CN1CCC(N(C)C(=O)c2cccc(CN3Cc4cc(Oc5ccccc5)ccc4N=C3N)c2)CC1` [Compound 223], for which the “% Inhibition (FS)” value is given as <30% (0.3 μM test compound), <30% (1 μM test compound) and <30% (3 μM test compound).
For `CC(C)(C)OC(=O)Nc1cccc(CN2Cc3cc(Oc4ccccc4)ccc3N=C2N)c1` [Compound 224], the “% Inhibition (FS)” value runs as follows: (0.3 μM test compound) <30%; (1 μM test compound) <30%; (3 μM test compound) <30%.
Consider `COc1ccc(-c2ccc3c(c2)CN(C(CCC(=O)N(C)C2CCCCC2)C2CCCCC2)C(N)=N3)cc1` (stereo not drawn) [Compound 226], for which the “% Inhibition (FS)” value (0.3 μM test compound) was <30%, the “% Inhibition (FS)” value (1 μM test compound) was <30% and the “% Inhibition (FS)” value (3 μM test compound) was found to be 54%.
Regarding `COc1ccccc1-c1ccc2c(c1)CN(C(CCC(=O)N(C)C1CCCCC1)C1CCCCC1)C(N)=N2` (stereo not drawn) [Compound 227], the “% Inhibition (FS)” value is, setting by setting: (0.3 μM test compound) 86%; (1 μM test compound) 109%; (3 μM test compound) 116%.
Regarding `Cc1cc(C)cc(Oc2ccc3c(c2)CN(Cc2cccc(C(=O)N(C)C4CCCCC4)c2)C(N)=N3)c1` [Compound 228], the “% Inhibition (FS)” value by setting is: (0.3 μM test compound) <30%; (1 μM test compound) 49%; (3 μM test compound) 40%.
For `CC(=O)Nc1cccc(Oc2ccc3c(c2)CN(Cc2cccc(C(=O)N(C)C4CCCCC4)c2)C(N)=N3)c1` [Compound 229], in that order: <30%, 35% and <30%.
For `CN(C(=O)c1cccc(CN2Cc3cc(Oc4cccnc4)ccc3N=C2N)c1)C1CCCCC1` [Compound 230], in that order: <30%, 33% and <30%.
For `COc1ccccc1Oc1ccc2c(c1)CN(Cc1cccc(C(=O)N(C)C3CCCCC3)c1)C(N)=N2` [Compound 232], in that order: <30%, <30% and 31%.
As for `CN(C(=O)c1cccc(CN2Cc3cc(Oc4ccc5c(c4)CCCC5)ccc3N=C2N)c1)C1CCCCC1` [Compound 233], the “% Inhibition (FS)” value (0.3 μM test compound) is on record as <30%, the “% Inhibition (FS)” value (1 μM test compound) came to 32% and the “% Inhibition (FS)” value (3 μM test compound) is 36%.
The corresponding values for `CN(C(=O)c1cccc(CN2Cc3cc(Oc4ccccc4-c4ccccc4)ccc3N=C2N)c1)C1CCCCC1` [Compound 234] are <30%, 57% and 43%.
The corresponding values for `CN(C(=O)c1cccc(CN2Cc3cc(Oc4ccccc4CC(N)=O)ccc3N=C2N)c1)C1CCCCC1` [Compound 235] are <30%, 46% and <30%.
